# In patent publication US12378249B2, “Isoquinoline compounds and uses thereof” (Genentech, Inc., priority 2018, dated 2025):
# Target: HPK1 (Homo sapiens (Human), UniProt Q92918, S171E/T165E)
# Assay: HPK1-FL HTRF Enzymatic Assay (HTRF)
# Assay type: biochemical
# Settings: HPK full length T165E S171E 0.125 nM, ATP 1 mM, Biotin-SLP76 100 nM, read-out: HPK1 Ki (nM), H = HTRF
# Experimental: Exemplary compounds of Formula (I) were tested to assess compound inhibition of HPK-1. The Ki for each exemplary compound was determined
# Example B1: HPK1-FL HTRF Enzymatic Assay (“HTRF”)
# HPK-FL enzyme phosphorylates Biotin-SLP-76 substrate in the presence of ATP at 1 mM and varying concentrations of test compound. Product is detected by FRET using Eu-anti-pSLP76 Ab and SA-XL665. Also see www.cisbio.com/HTRF for additional HTRF technology information.
# • Echo555 compound dispenser • Agilent Bravo • Perkin Elmer Envision Final Assay Conditions:
# Materials: • Assay plate: White ProxiPlate 384 F (PerkinElmer cat #6008289) • Kinase: HPK full length double mutant • Substrate: Biotin-SLP76 • ATP: 100 mM ATP • BSG: 2% BSG • DMSO: DMSO (Sigma cat #34869-100ML) • Reaction Buffer: H2O/50 mM HEPES, pH 7.5/10 mM MgCl2/2 mM TCEP/0.01% Brij-35/0.01% BSG • Detection mix:Eu-anti-pSLP76/SA-XL665 (Cisbio, #610SAXAC) Assay Procedure Ki determination:
# To a 384 well Proxiplate with 80 nL compound or DMSO spotted on was added 4 μl/well kinase mix. The mixture was preincubated for 30 minutes and then 4 μl/well substrate mix was added. The solution was incubated for 60 min and then 4 μl/well detection mix was added. The solution was incubated for another 60 min. The plates were then loaded onto a Perkin Elmer Envision and the TR-FRET signal was measured at 615 and 665 nm. A ratio of […] was used to calculate the % activity at each concentration of compound.
# Chain of HPK1 (Q92918 whole entry T165E/S171E): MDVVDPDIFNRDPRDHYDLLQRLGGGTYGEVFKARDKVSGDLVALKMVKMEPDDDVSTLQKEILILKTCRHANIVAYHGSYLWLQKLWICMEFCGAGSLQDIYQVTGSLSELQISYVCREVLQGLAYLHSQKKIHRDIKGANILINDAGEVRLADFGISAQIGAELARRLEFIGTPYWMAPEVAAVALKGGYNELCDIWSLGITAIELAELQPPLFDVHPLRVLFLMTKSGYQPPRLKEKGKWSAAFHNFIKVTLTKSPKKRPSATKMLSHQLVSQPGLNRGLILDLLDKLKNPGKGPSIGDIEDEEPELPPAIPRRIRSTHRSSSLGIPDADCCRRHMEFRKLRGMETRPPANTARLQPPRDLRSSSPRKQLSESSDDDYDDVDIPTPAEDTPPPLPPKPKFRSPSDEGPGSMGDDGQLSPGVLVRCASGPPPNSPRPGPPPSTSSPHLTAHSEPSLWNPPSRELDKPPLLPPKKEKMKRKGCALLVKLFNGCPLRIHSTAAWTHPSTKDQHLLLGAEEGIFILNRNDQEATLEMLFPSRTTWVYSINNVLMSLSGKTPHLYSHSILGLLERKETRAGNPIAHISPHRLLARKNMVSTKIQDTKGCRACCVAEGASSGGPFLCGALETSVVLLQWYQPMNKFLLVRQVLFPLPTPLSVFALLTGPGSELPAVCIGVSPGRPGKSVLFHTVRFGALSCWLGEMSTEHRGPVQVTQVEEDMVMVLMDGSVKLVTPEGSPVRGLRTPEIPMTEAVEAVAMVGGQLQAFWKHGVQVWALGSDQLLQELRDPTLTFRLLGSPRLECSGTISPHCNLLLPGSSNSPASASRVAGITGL
row,Structure (SMILES),Ki [nM]
1,"Cc1c(-c2cc3cc(Nc4cc5n(n4)CC(=O)N(C)CC5)ncc3cc2F)cnc2c1[C@](C)(O)CCO2 (single isomer, unassigned) [Compound 226b]",1.9
2,"CN[C@H]1CCc2c(-c3cc4cc(Nc5cc6n(n5)CC(=O)N(C)CC6)ncc4cc3F)cncc21 (single isomer, unassigned) [Compound 228b]",446
3,"Cc1c(-c2cc3cc(Nc4cc5n(n4)CC(=O)N(C)CC54CC4)ncc3cc2F)cnc2c1NCC[C@]2(C)O (single isomer, unassigned) [Compound 229a]",0.09
4,"Cc1c(-c2cc(F)c3cnc(Nc4cc5n(n4)CC(=O)N(C)CC5)cc3c2)cnc2c1NCC[C@@]2(C)O (single isomer, unassigned) [Compound 231a]",1.3
5,"Cc1c(-c2cc(F)c3cnc(Nc4cc5n(n4)CC(=O)N(C)CC5)cc3c2)cnc2c1NCC[C@]2(C)O (single isomer, unassigned) [Compound 231b]",0.38
6,"CO[C@@H]1CCNc2c1ncc(-c1cc(F)c3cnc(Nc4cc5n(n4)CC(=O)N(C)CC5)cc3c1)c2C (single isomer, unassigned) [Compound 234b]",2.1
7,"Cc1c(-c2cc3cc(Nc4cc5n(n4)CC(=O)N(C)CC5)ncc3cc2F)cnc2c1NCC[C@@H]2O (single isomer, unassigned) [Compound 236a]",0.076
8,"Cc1c(-c2cc3cc(Nc4cc5n(n4)CC(=O)N(C)CC5)ncc3cc2F)cnc2c1NCC[C@H]2O (single isomer, unassigned) [Compound 236b]",0.062
9,"Cc1c(-c2cc(F)c3cnc(Nc4cc5n(n4)CC(=O)N(C)CC54CC4)cc3c2)cnc2c1NCC[C@H]2O (single isomer, unassigned) [Compound 237b]",0.319
10,"Cc1c(-c2cc3cc(Nc4cc5n(n4)CC(=O)N(C)CC5)ncc3cc2F)cnc2c1NCC(C)(C)[C@@H]2O (single isomer, unassigned) [Compound 241b]",0.265
11,"Cc1c(-c2cc3cc(Nc4cc5n(n4)Cc4nccn4CC5)ncc3cc2F)cnc2c1NCC[C@@H]2O (single isomer, unassigned) [Compound 243a]",0.013
12,"Cc1c(-c2cc3cc(Nc4cc5n(n4)Cc4nccn4CC5)ncc3cc2F)cnc2c1NCC[C@H]2O (single isomer, unassigned) [Compound 243b]",0.02

# The remaining compounds from weak to strong by Ki, led by results:
row,Ki [nM],Structure (SMILES)
1,8.3,"CN[C@@H]1CCc2c(-c3cc4cc(Nc5cc6n(n5)CC(=O)N(C)CC6)ncc4cc3F)cncc21 (single isomer, unassigned) [Compound 228a]"
2,2.1,"Cc1c(-c2cc3cc(Nc4cc5n(n4)CC(=O)N(C)CC5)ncc3cc2F)cnc2c1[C@@H](F)CCO2 (single isomer, unassigned) [Compound 235a]"
3,1.7,"Cc1c(-c2cc3cc(Nc4cc5n(n4)CS(=O)(=O)N(C)C5)ncc3cc2F)cnc2c1NCC[C@H]2O (single isomer, unassigned) [Compound 242b]"
4,0.46,"CO[C@H]1CCNc2c1ncc(-c1cc(F)c3cnc(Nc4cc5n(n4)CC(=O)N(C)CC5)cc3c1)c2C (single isomer, unassigned) [Compound 234a]"
5,0.457,"Cc1c(-c2cc3cc(Nc4cc5n(n4)CS(=O)(=O)N(C)C5)ncc3cc2F)cnc2c1NCC[C@@H]2O (single isomer, unassigned) [Compound 242a]"
6,0.332,"Cc1c(-c2cc(F)c3cnc(Nc4cc5n(n4)CC(=O)N(C)CC54CC4)cc3c2)cnc2c1NCC[C@@H]2O (single isomer, unassigned) [Compound 237a]"
7,0.127,"Cc1c(-c2cc3cc(Nc4cc5n(n4)CC(=O)N(C)CC5)ncc3cc2F)cnc2c1[C@H](F)CCO2 (single isomer, unassigned) [Compound 235b]"
8,0.11,"Cc1c(-c2cc3cc(Nc4cc5n(n4)CC(=O)N(C)CC5)ncc3cc2F)cnc2c1NCC(C)(C)[C@H]2O (single isomer, unassigned) [Compound 241a]"
9,0.016,"Cc1c(-c2cc3cc(Nc4cc5n(n4)CC(=O)N(C)CC54CC4)ncc3cc2F)cnc2c1NCC[C@@]2(C)O (single isomer, unassigned) [Compound 229b]"
